One may read the Ki as the equilibrium dissociation constant of an inhibitor or competing ligand from its target.

One test has as its target CB1 receptor (Rattus norvegicus, UniProt P20272). The experiment in a line: biochemical. The class given is binding. The following applies: for Ki: 1 nM [3H] CP 55,940, rat whole brain P2 membranes, 30° C. for 1 hr. As for the experimental part: (§1) Male ICR mice (25-32 g), purchased from Harlan (Dublin, Va.), were housed in groups of five. All animals were kept in a temperature-controlled (20-22° C.) environment with a 12-hour light-dark cycle (lights on at 7 a.m.). Separate mice were used for testing each drug dose in the in vivo behavioral procedures. The mice were maintained on a […] light: dark cycle, and received food and water ad libitum. Brain tissue for binding studies was obtained from male Sprague-Dawley rats (150-200 g) purchased from Harlan Laboratories (Dublin, Va.).
All assays, as described briefly below, were performed in triplicate, and the results represent the combined data from three to six individual experiments. Following decapitation and rapid removal of the brain, whole brain was homogenized and centrifuged. The resulting pellet was termed P1. The supernatant was saved and combined with the two subsequent supernatants obtained from washing of the P1 pellet. The combined supernatant fractions were centrifuged, resulting in the P2 pellet. After further incubation and centrifuging, this pellet was resuspended in assay buffer to a protein concentration of approximately 2 mg/ml. The membrane preparation was quickly frozen in a bath solution of dry ice and 2-methylbutane (Sigma Chemical Co., St. Louis, Mo.), then stored at −80° C. for no more than 2 weeks. […] Binding was initiated by the addition of 150 μg of P2 membrane to test tubes containing 1 nM of [3H] […] Following incubation at 30° C. for 1 hr, binding was terminated by addition of ice-cold buffer and vacuum filtration through pretreated filters in a 12-well sampling manifold (Millipore, Bedford, Mass.). After washing, filters were placed into plastic scintillation vials (Packard, Downer Grove, Ill.) and shaken. The quantity of radioactivity present was determined by liquid scintillation spectrometry.

Test [1] has as its system mice. The test is described as follows: Spontaneous (locomotor) activity in mice, compound alone (agonism test). The following applies: for ED50: mice, i.v., read-out: SA: > dose, 50% activity not achieved at this highest dose tested; for Max % inhibit of spontaneous locomotor activity, Compound Alone (in words: stimulation instead of inhibition): doses in mg/kg; for change in vivo at 30 mg/kg: at 30 mg/kg i.v. The class given is in vivo. The method, then: as §1
(§2) Measurement of spontaneous activity in mice occurred in standard activity chambers interfaced with a Digiscan Animal Activity Monitor (Omnitech Electronics, Inc., Columbus, Ohio). A standard tail-flick apparatus (described by Dewey et al., 1970) and a digital thermometer (Fisher Scientific, Pittsburgh, Pa.) were used to measure antinociception and rectal temperature, respectively.
(§3) All drugs were administered to the mice intravenously (i.v.) in the tail vein at a volume of 0.1 ml/10 g.
(§4) Maximum latency of 10 sec was used.

Test [2] has as its system mice. The experiment in a line: Tail-flick antinociception in mice, compound alone (agonism test). The class given is in vivo. To be noted: Mus musculus, iv, read-out: TF: > dose, 50% activity not achieved at this highest dose tested. The method, then:
as §1, §2, §3, §4

The subject of test [3] is mice. The test is described as follows: Rectal temperature (hypothermia) in mice, compound alone (agonism test). To be noted: Mus musculus, iv, read-out: RT: > dose, 50% activity not achieved at this highest dose tested. Format: in vivo. As for the experimental part:
as §1, §2, §3, §4

In test [4] the test system is mice. The experiment in a line: Spontaneous activity in mice, compound in combination with 3 mg/kg Δ^9-THC (antagonism test). Format: in vivo. To be noted: for Max stim of spontaneous locomotor activity, Compound with 3 mg/kg Δ^9-THC: at 30 mg/kg i.v.; for SA: maximum % antagonism of 3 mg/kg Δ^9-THC: analog 10 min before Δ^9-THC. The method, then:
as §1, §2, §3, §4

Test [5] deals with mice. The experiment in a line: Tail-flick antinociception in mice, compound in combination with 3 mg/kg Δ^9-THC (antagonism test). The class given is in vivo. The method, then:
as §1, §2, §3, §4

In test [6] the test system is mice. The test is described as follows: Rectal temperature in mice, compound in combination with 3 mg/kg Δ^9-THC (antagonism test). Format: in vivo. To be noted: at 10 mg/kg i.v. The method, then:
as §1, §2, §3, §4

Setting [7] is: Mus musculus, iv, read-out: Max stim of spontaneous locomotor activity, Compound Alone.
[8] abbreviates: at the dose(s) [mg/kg] given in parentheses in the cell.

Where two headings read alike, the source gives them in different places.

Sequence of CB1 receptor (P20272 whole entry): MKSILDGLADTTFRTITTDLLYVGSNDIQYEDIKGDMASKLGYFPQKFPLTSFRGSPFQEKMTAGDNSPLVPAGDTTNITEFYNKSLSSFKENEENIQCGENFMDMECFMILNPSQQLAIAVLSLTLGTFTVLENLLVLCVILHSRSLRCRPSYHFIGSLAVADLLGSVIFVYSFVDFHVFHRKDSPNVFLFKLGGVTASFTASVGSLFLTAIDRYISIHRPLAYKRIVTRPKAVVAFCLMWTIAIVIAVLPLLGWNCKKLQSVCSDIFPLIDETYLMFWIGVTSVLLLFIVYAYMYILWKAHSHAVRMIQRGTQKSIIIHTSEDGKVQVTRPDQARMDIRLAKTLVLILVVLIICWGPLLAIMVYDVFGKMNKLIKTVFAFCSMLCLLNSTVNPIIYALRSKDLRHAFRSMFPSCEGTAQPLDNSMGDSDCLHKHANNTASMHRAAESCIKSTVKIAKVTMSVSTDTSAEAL

For the molecule `Cc1c(COCc2cccc3ccccc23)nn(-c2ccc(Cl)cc2Cl)c1-c1ccc(Cl)cc1` [Compound O-852], the affinity at CB1 receptor (Ki (nM)), expressed as Ki, was 78 ± 10 nM. Besides, the change in vivo at 1 mg/kg with mice [1] (Mus musculus, iv, at 1 mg/kg i.v., read-out: Max stim of spontaneous locomotor activity, Compound Alone) is 52%. The ED50 in the test with mice [1] (Mus musculus, iv) is greater than 10 mg/kg; in the test on mice [2], greater than 10 mg/kg; in the test with mice [3] it was greater than 10 mg/kg. The “stimulation of locomotor activity” value with mice [1] (compound alone, dose not given (see Table 5)) came out at 52%. In the test with mice [1], the “Max % inhibit of spontaneous locomotor activity, Compound Alone (in words: stimulation instead of inhibition)” value was “stim at 1, 3 & 10”.

For the molecule `CCCCc1ccc(-n2nc(C(=O)NN3CCCCC3)c(C)c2-c2ccc(Cl)cc2)cc1` [Compound O-1254], at CB1 receptor (Ki (nM)), the Ki was determined as 226 ± 4 nM. Also, the change in vivo at 30 mg/kg in the test on mice [1] (setting [7]) stood at 29%. The ED50 in the test with mice [1] (Mus musculus, iv) is greater than 30 mg/kg; with mice [2], greater than 30 mg/kg; in the test with mice [3], greater than 30 mg/kg. Further, in the test with mice [1], the “Max % inhibit of spontaneous locomotor activity, Compound Alone (in words: stimulation instead of inhibition)” value is recorded as “stim at 3, 10 & 30”. Moreover, in the test with mice [4], the “Max stim of spontaneous locomotor activity, Compound with 3 mg/kg Δ^9-THC” value is given as 13% (30). For the same molecule, in the test on mice [4] (setting [8]), the “SA: maximum % antagonism of 3 mg/kg Δ^9-THC (in words)” value is “stimulation”. In the test with mice [4] (doses in mg/kg), the “Max % inhibit of spontaneous locomotor activity, Compound with 3 mg/kg Δ^9-THC (in words)” value is recorded as “stim at 10”. The “% MPE: maximum % antagonism of 3 mg/kg Δ^9-THC” value with mice [5] (at 30 mg/kg i.v.) is on record as 52% (30). For the same molecule, the “RT: maximum % antagonism of 3 mg/kg Δ^9-THC” value in the test with mice [6] was 31% (10).

As to `CCCCCc1ccc(-n2nc(C(=O)NN3CCCCC3)c(C)c2-c2ccc(Cl)cc2)cc1` [Compound O-1255], the Ki at CB1 receptor (read-out: Ki) came to 433 ± 103 nM. Further, at CB1 receptor (compared to O-1254), the “CB1 binding affinity, fold less than the n-butyl compound” value is recorded as roughly 2 fold. The inhibition in vivo at 10 mg/kg in the test with mice [1] (Mus musculus, iv, at 10 mg/kg i.v., read-out: Max % inhibit of spontaneous locomotor activity, Compound Alone) was 20%. In addition, the ED50 is greater than 30 mg/kg in the test with mice [1] (Mus musculus, iv); greater than 30 mg/kg in the test with mice [2]; greater than 30 mg/kg with mice [3]. For the same molecule, the “Max stim of spontaneous locomotor activity, Compound Alone (in words)” value in the test with mice [1] (setting [8]) is given as “None (3, 10 & 30)”. The “Max % inhibit of spontaneous locomotor activity, Compound with 3 mg/kg Δ^9-THC” value with mice [4] (at 10 mg/kg i.v.) is reported as 65% (10). In addition, in the test with mice [4] (at 10 mg/kg i.v.), the “SA: maximum % antagonism of 3 mg/kg Δ^9-THC” value is 0% (10). Further, the “Max stim of spontaneous locomotor activity, Compound with 3 mg/kg Δ^9-THC (in words)” value in the test on mice [4] (setting [8]) was “None (10)”. Further, the “% MPE: maximum % antagonism of 3 mg/kg Δ^9-THC” value in the test with mice [5] (at 10 mg/kg i.v.) was 13% (10). Moreover, the “RT: maximum % antagonism of 3 mg/kg Δ^9-THC” value in the test with mice [6] is listed as 14% (10).

As for `Cc1c(C(=O)NN2CCCCC2)nn(-c2ccccc2)c1-c1ccc(Cl)cc1` [Compound O-1300], the Ki on CB1 receptor (Ki (nM)) is 150 ± 20 nM. Moreover, at CB1 receptor (compared to SR 141716A), the “CB1 binding affinity, fold less than SR 141716A” value worked out at 24 fold. Moreover, the change in vivo at 30 mg/kg in the test on mice [1] (setting [7]) worked out at 54%. Further, the ED50 was greater than 30 mg/kg in the test with mice [1] (Mus musculus, iv); greater than 30 mg/kg in the test on mice [2]; greater than 30 mg/kg with mice [3]. For the same molecule, the “Max % inhibit of spontaneous locomotor activity, Compound Alone (in words: stimulation instead of inhibition)” value in the test on mice [1] was “stim at 30”.

At CB1 receptor (Ki (nM)), `CCCCCc1ccc(-c2c(C)c(C(=O)NN3CCCCC3)nn2-c2ccc(Cl)cc2Cl)cc1` [Compound O-1302, N-(Piperidin-1-yl)-1-(2,4-dichlorophenyl)-4-methyl-5-(4-pentylphenyl)-1H-pyrazole-3-carboxamide] displayed a Ki of 2.1 ± 0.08 nM. Moreover, the “CB1 receptor binding affinity, fold greater than SR 141716A” value on CB1 receptor (compared to SR 141716A) is reported as “approximately 3 fold”. Besides, in the test with mice [1] (Mus musculus, iv, at 3 mg/kg i.v., read-out: Max % inhibit of spontaneous locomotor activity, Compound Alone), the inhibition in vivo at 3 mg/kg was determined as 26%. For the same molecule, the change in vivo at 10 mg/kg in the test with mice [1] (Mus musculus, iv, at 10 mg/kg i.v., read-out: Max stim of spontaneous locomotor activity, Compound Alone) was 2%. Moreover, the ED50 in the test on mice [1] (Mus musculus, iv) was greater than 30 mg/kg; in the test on mice [2], greater than 30 mg/kg; in the test on mice [3], greater than 30 mg/kg. The “Max % inhibit of spontaneous locomotor activity, Compound with 3 mg/kg Δ^9-THC” value with mice [4] (at 0.3 mg/kg i.v.) is 74% (0.3). Moreover, the “SA: maximum % antagonism of 3 mg/kg Δ^9-THC” value with mice [4] (at 1 mg/kg i.v.) was 91% (1). In addition, the “Max stim of spontaneous locomotor activity, Compound with 3 mg/kg Δ^9-THC” value in the test with mice [4] is recorded as 107% (30).

The record behind these values is patent publication US6509367B1 (priority 2001, dated 2003).
